One may read the IC50 as the midpoint of a concentration-inhibition curve. Higher therefore signals weaker potency.

In patent publication US20230087118A1, “IMIDAZO[1,2-a][sequence] DERIVATIVES AND THEIR USE IN THE TREATMENT OF DISEASE” (priority 2019, published 2023) one finds IC50 data, which are given here for 21 compounds.

Molecules are shown by their SMILES. Counter-ions that a name gives are not always drawn.

The first experiment has as its target T1, IRAK4 (Homo sapiens, UniProt Q9NWZ3).
T1 sequence (Q9NWZ3 1-460): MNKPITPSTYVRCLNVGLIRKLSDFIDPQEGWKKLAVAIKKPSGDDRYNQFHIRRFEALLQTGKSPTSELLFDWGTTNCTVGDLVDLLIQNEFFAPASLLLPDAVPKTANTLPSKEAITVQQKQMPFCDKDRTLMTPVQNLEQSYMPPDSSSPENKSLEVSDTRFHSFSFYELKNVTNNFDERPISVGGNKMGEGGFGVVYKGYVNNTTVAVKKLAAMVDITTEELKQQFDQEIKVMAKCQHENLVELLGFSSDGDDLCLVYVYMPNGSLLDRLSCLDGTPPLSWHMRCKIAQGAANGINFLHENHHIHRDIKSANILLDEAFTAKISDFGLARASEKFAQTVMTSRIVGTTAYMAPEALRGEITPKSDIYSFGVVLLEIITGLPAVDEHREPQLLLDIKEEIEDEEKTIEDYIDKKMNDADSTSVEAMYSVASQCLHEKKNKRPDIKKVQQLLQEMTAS
Description: biochemical.
Conditions: not given
For `CC12CC(c3cn4cc(C(=O)Nc5cccc(C(F)F)n5)nc(OCC(F)F)c4n3)(CO1)C2` [Example 344, 8-(2,2-Difluoroethoxy)-N-(6-(difluoromethyl)pyridin-2-yl)-2-(1-methyl-2-oxabicyclo[2.1.1]hexan-4-yl)imidazo[1,2-a]pyrazine-6-carboxamide], the concentration for half-maximal inhibition (IC50) was determined as 0.0034 µM. As to `CC12CC(c3cn4cc(C(=O)Nc5cccc(C(F)F)n5)nc(OC5CCC5)c4n3)(CO1)C2` [Example 345, 8-Cyclobutoxy-N-(6-(difluoromethyl)pyridin-2-yl)-2-(1-methyl-2-oxabicyclo[2.1.1]hexan-4-yl)imidazo[1,2-a]pyrazine-6-carboxamide], half-maximal inhibition (IC50) required 0.0022 µM. The compound `Cn1ccc(NC(=O)c2cn3cc(C45COC(C)(C4)C5)nc3c(OC3CCC3)n2)n1` [Example 346, 8-Cyclobutoxy-N-(1-methyl-1H-pyrazol-3-yl)-2-(1-methyl-2-oxabicyclo[2.1.1]hexan-4-yl)imidazo[1,2-a]pyrazine-6-carboxamide] came in with an IC50 of 0.0085 µM. `COc1ncccc1NC(=O)c1cn2cc(C34COC(C)(C3)C4)nc2c(OC2CCC2)n1` [Example 347, 8-Cyclobutoxy-N-(2-methoxypyridin-3-yl)-2-(1-methyl-2-oxabicyclo[2.1.1]hexan-4-yl)imidazo[1,2-a]pyrazine-6-carboxamide] yielded an IC50 of 0.0006 µM. On the same count and under the same terms, under `CC12CC(c3cn4cc(C(=O)Nc5cccc6ccnn56)nc(OC5CCC5)c4n3)(CO1)C2` [Example 348, 8-Cyclobutoxy-2-(1-methyl-2-oxabicyclo[2.1.1]hexan-4-yl)-N-(pyrazolo[1,5-a]pyridin-7-yl)imidazo[1,2-a]pyrazine-6-carboxamide] stands 0.0082 µM; under `CC12CC(c3cn4cc(C(=O)Nc5cnn6cccnc56)nc(OC5CCC5)c4n3)(CO1)C2` [Example 349, 8-Cyclobutoxy-2-(1-methyl-2-oxabicyclo[2.1.1]hexan-4-yl)-N-(pyrazolo[1,5-a]pyrimidin-3-yl)imidazo[1,2-a]pyrazine-6-carboxamide], 0.0053 µM. `COCc1nc2nc(C34COC(C)(C3)C4)cn2cc1C(=O)Nc1cnn2cc(C)cnc12` [Example 352, 7-(Methoxymethyl)-2-(1-methyl-2-oxabicyclo[2.1.1]hexan-4-yl)-N-(6-methylpyrazolo[1,5-a]pyrimidin-3-yl)imidazo[1,2-a]pyrimidine-6-carboxamide] registered an IC50 of 6.53 µM. The compound `CC(C)Oc1nc2nc(C34COC(C)(C3)C4)cn2cc1C(=O)Nc1ccccn1` [Example 354, 7-Isopropoxy-2-(1-methyl-2-oxabicyclo[2.1.1]hexan-4-yl)-N-(pyridin-2-yl)imidazo[1,2-a]pyrimidine-6-carboxamide] came in with an IC50 of 0.0053 µM. For `Cc1cccc(NC(=O)c2cn3cc(C45COC(C)(C4)C5)nc3nc2OC(C)C)n1` [Example 355, 7-Isopropoxy-2-(1-methyl-2-oxabicyclo[2.1.1]hexan-4-yl)-N-(6-methylpyridin-2-yl)imidazo[1,2-a]pyrimidine-6-carboxamide], the IC50 is 0.0016 µM. In turn, `CC(C)Oc1nc2nc(C34COC(C)(C3)C4)cn2cc1C(=O)Nc1cc(F)n(C)n1` [Example 360, N-(5-fluoro-1-methyl-1H-pyrazol-3-yl)-7-isopropoxy-2-(1-methyl-2-oxabicyclo[2.1.1]hexan-4-yl)imidazo[1,2-a]pyrimidine-6-carboxamide] gave an IC50 of 0.0111 µM. Consider `CC(C)Oc1nc2nc(C34COC(C)(C3)C4)cn2cc1C(=O)Nc1ccn(C(F)F)n1` [Example 361, N-(1-(difluoromethyl)-1H-pyrazol-3-yl)-7-isopropoxy-2-(1-methyl-2-oxabicyclo[2.1.1]hexan-4-yl)imidazo[1,2-a]pyrimidine-6-carboxamide], for which the IC50 worked out at 0.0037 µM. The compound `CC(C)Oc1nc2nc(C34COC(C)(C3)C4)cn2cc1C(=O)Nc1ccn(C(F)(F)F)n1` [Example 362, 7-Isopropoxy-2-(1-methyl-2-oxabicyclo[2.1.1]hexan-4-yl)-N-(1-(trifluoromethyl)-1H-pyrazol-3-yl)imidazo[1,2-a]pyrimidine-6-carboxamide] yielded a 50% inhibitory concentration (IC50) of 0.0082 µM. As for `CC(C)Oc1nc2nc(C34COC(C)(C3)C4)cn2cc1C(=O)Nc1nc(C(F)F)cs1` [Example 367, N-(4-(difluoromethyl)thiazol-2-yl)-7-isopropoxy-2-(1-methyl-2-oxabicyclo[2.1.1]hexan-4-yl)imidazo[1,2-a]pyrimidine-6-carboxamide], the IC50 was 0.0079 µM. The same measure, in the same setting: under `CC(C)Oc1nc2nc(C34COC(C)(C3)C4)cn2cc1C(=O)Nc1cccc(-c2cnco2)n1` [Example 368, 7-Isopropoxy-2-(1-methyl-2-oxabicyclo[2.1.1]hexan-4-yl)-N-(6-(oxazol-5-yl)pyridin-2-yl)imidazo[1,2-a]pyrimidine-6-carboxamide] stands 0.0002 µM.

The experiment is the same for the next values; noted with them: IRAK4 Biochemical Assay (1 mM ATP, 2 h) IC50 (μM), 1 mM ATP, 2 h, 100 pM IRAK4.
Compound `CC(C)Oc1nc2nc(C34COC(C)(C3)C4)cn2cc1C(=O)Nc1cccc(C#N)c1F` [Example 353, N-(3-cyano-2-fluorophenyl)-7-isopropoxy-2-(1-methyl-2-oxabicyclo[2.1.1]hexan-4-yl)imidazo[1,2-a]pyrimidine-6-carboxamide trifluoroacetate] gave an IC50 of 0.0025 µM. For the compound `CC(C)Oc1nc2nc(C34COC(C)(C3)C4)cn2cc1C(=O)Nc1cccc(C(C)(F)F)n1` [Example 356, N-(6-(1,1-difluoroethyl)pyridin-2-yl)-7-isopropoxy-2-(1-methyl-2-oxabicyclo[2.1.1]hexan-4-yl)imidazo[1,2-a]pyrimidine-6-carboxamide trifluoroacetate], half-maximal inhibition (IC50) required 0.0011 µM. Still for that read-out and setting: the figure for `CC(C)Oc1nc2nc(C34COC(C)(C3)C4)cn2cc1C(=O)Nc1cccc(N(C)C)n1` [Example 357, N-(6-(dimethylamino)pyridin-2-yl)-7-isopropoxy-2-(1-methyl-2-oxabicyclo[2.1.1]hexan-4-yl)imidazo[1,2-a]pyrimidine-6-carboxamide trifluoroacetate] is 0.0003 µM; for `CC(C)Oc1nc2nc(C34COC(C)(C3)C4)cn2cc1C(=O)Nc1cccc(C2CCOC2)n1` (stereo not drawn) [Example 359, 7-Isopropoxy-2-(1-methyl-2-oxabicyclo[2.1.1]hexan-4-yl)-N-(6-(tetrahydro-furan-3-yl)pyridin-2-yl)imidazo[1,2-a]pyrimidine-6-carboxamide trifluoroacetate] it is 0.0009 µM; for `CC(C)Oc1nc2nc(C34COC(C)(C3)C4)cn2cc1C(=O)Nc1ccn(C2CCC2)n1` [Example 364, N-(1-cyclobutyl-1H-pyrazol-3-yl)-7-isopropoxy-2-(1-methyl-2-oxabicyclo[2.1.1]hexan-4-yl)imidazo[1,2-a]pyrimidine-6-carboxamide trifluoroacetate] it is 0.0057 µM. On to `CC(C)Oc1nc2nc(C34COC(C)(C3)C4)cn2cc1C(=O)Nc1cnn(C)n1` [Example 365, 7-Isopropoxy-N-(2-methyl-2H-1,2,3-triazol-4-yl)-2-(1-methyl-2-oxabicyclo[2.1.1]hexan-4-yl)imidazo[1,2-a]pyrimidine-6-carboxamide trifluoroacetate], for which half-maximal inhibition (IC50) required 0.0128 µM.

`CC(C)Oc1nc2nc(C34COC(C)(C3)C4)cn2cc1C(=O)Nc1ccc2c(n1)CCC2` [Example 366, N-(6,7-dihydro-5H-cyclopenta[b]pyridin-2-yl)-7-isopropoxy-2-(1-methyl-2-oxabicyclo[2.1.1]hexan-4-yl)imidazo[1,2-a]pyrimidine-6-carboxamide trifluoroacetate]: the IC50 stood at 0.0065 µM.
